Several values for one entry are separate records, joined by “and”; a condition that tells them apart may be missing. Equal values may be shown once.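 Step 1: Grow cells in 96-well plates. Step 2: Expose to compound for 48 hours at 5 concentrations. Step 3: Interpolate endpoints linearly; if unreached, use highest concentration. Abbreviation: GI50, concentration required for 50% inhibition of growth.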 Activity calls are given as the source filed them. Rule as the data show it: active = GI50 up to about 1.1 µM and inactive = higher.
Tests used:
Assay in all cases: NCI tumour cell line growth inhibition, 48 h
[1] = tested on: A498
[2] = tested on: DMS-114
[3] = tested on: HL-60
[4] = tested on: HOP-92
[5] = tested on: HT-29
[6] = tested on: KM-20L2
[7] = tested on: M19-MEL
[8] = tested on: MCF7
[9] = tested on: MOLT-4
[10] = tested on: Malme-3M
[11] = tested on: NCI-H522
[12] = tested on: OVCAR-8
[13] = tested on: SF-268
[14] = tested on: SK-MEL-28
[15] = tested on: SK-OV-3
[16] = tested on: SNB-75
[17] = tested on: U-251
[18] = tested on: UO-31
[19] = tested on: XF498
[20] = tested on: ACHN

Nc1ccn(C2OC(COP(=O)(O)Oc3ccccc3)C(O)C2O)c(=O)n1 (stereo not drawn)
GI50 [1]: 4.06 µM (inactive) | GI50 [2]: 13.7 µM (inactive) | GI50 [3]: 61.2 µM (inactive) | GI50 [4]: 18.6 µM (inactive) | GI50 [5]: > 100 µM (inactive) | GI50 [6]: > 39.7 µM (inactive) | GI50 [7]: 50.2 µM (inactive) | GI50 [8]: 13 µM (inactive) | GI50 [9]: 0.979 µM (active) | GI50 [10]: > 35.3 µM (inactive) | GI50 [11]: 16.6 µM (inactive) | GI50 [12]: 7.67 µM (inactive) | GI50 [13]: 20 µM (inactive) | GI50 [14]: 9.38 µM (inactive) | GI50 [15]: > 100 µM (inactive) | GI50 [16]: > 100 µM (inactive) | GI50 [17]: 44.6 µM (inactive) | GI50 [18]: 30.6 µM (inactive) | GI50 [19]: < 0.01 µM (active)

CN1C(=O)c2ccccc2NC(=O)c2cnn(C)c21
GI50 [1]: > 100 µM (inactive) | GI50 [2]: > 100 µM (inactive) | GI50 [3]: > 100 µM (inactive) | GI50 [4]: > 100 µM (inactive) | GI50 [5]: > 100 µM (inactive) | GI50 [6]: > 100 µM (inactive) | GI50 [7]: > 100 µM (inactive) | GI50 [8]: > 100 µM (inactive) | GI50 [9]: > 100 µM (inactive) | GI50 [10]: > 100 µM (inactive) | GI50 [11]: > 100 µM (inactive) | GI50 [12]: > 100 µM (inactive) | GI50 [13]: > 100 µM (inactive) | GI50 [14]: > 100 µM (inactive) | GI50 [15]: > 100 µM (inactive) | GI50 [16]: > 100 µM (inactive) | GI50 [17]: > 100 µM (inactive) | GI50 [18]: > 100 µM (inactive) | GI50 [19]: > 100 µM (inactive)

C/C(CCOC1CCCCO1)=C(\C)[Si](C)(C)C (stereo not drawn)
GI50 [1]: > 100 µM (inactive) | GI50 [20]: > 100 µM (inactive) | GI50 [2]: > 100 µM (inactive) | GI50 [3]: 93.3 µM (inactive) | GI50 [4]: > 100 µM (inactive) | GI50 [5]: > 100 µM (inactive) | GI50 [6]: > 100 µM (inactive) | GI50 [7]: > 100 µM (inactive) | GI50 [9]: 72.8 µM (inactive) | GI50 [10]: > 100 µM (inactive) | GI50 [11]: > 100 µM (inactive) | GI50 [12]: > 100 µM (inactive) | GI50 [13]: > 100 µM (inactive) | GI50 [14]: > 100 µM (inactive) | GI50 [15]: > 10 µM (inactive) | GI50 [16]: > 100 µM (inactive) | GI50 [17]: > 100 µM (inactive) | GI50 [18]: > 100 µM (inactive) | GI50 [19]: > 100 µM (inactive)

c1cc(CNC2C3CCC(C3)C2c2c[nH]c3ccccc23)cc(CNC2C3CCC(C3)C2c2c[nH]c3ccccc23)c1 (stereo not drawn)
GI50 [20]: 1.19 µM (inactive) and 1.57 µM (inactive) | GI50 [8]: 0.205 µM (active) | GI50 [10]: 1.87 µM (inactive) and 1.77 µM (inactive) | GI50 [11]: 1.12 µM (active) and 1.36 µM (inactive) | GI50 [12]: 1.4 µM (inactive) and 1.46 µM (inactive) | GI50 [13]: 1.58 µM (inactive) and 1.53 µM (inactive) | GI50 [15]: 1.85 µM (inactive) and 1.8 µM (inactive) | GI50 [16]: 752 nM (active) and 1.3 µM (inactive) | GI50 [17]: 619 nM (active) and 615 nM (active) | GI50 [18]: 229 nM (active) and 160 nM (active)

COc1ccc(N2C(=O)C(=O)C3(CCCCC3)C2=O)c2ccccc12
GI50 [1]: > 10 µM (inactive) | GI50 [20]: > 10 µM (inactive) | GI50 [3]: > 10 µM (inactive) | GI50 [5]: > 10 µM (inactive) | GI50 [8]: > 10 µM (inactive) | GI50 [9]: > 10 µM (inactive) | GI50 [10]: > 10 µM (inactive) | GI50 [11]: > 10 µM (inactive) | GI50 [12]: > 10 µM (inactive) | GI50 [13]: > 10 µM (inactive) | GI50 [14]: > 10 µM (inactive) | GI50 [15]: > 10 µM (inactive) | GI50 [16]: > 10 µM (inactive) | GI50 [17]: > 10 µM (inactive) | GI50 [18]: 9.77 µM (inactive)

C[n+]1cccc2c(=O)c3ccccc3oc21
GI50 [1]: > 100 µM (inactive) | GI50 [20]: > 100 µM (inactive) | GI50 [3]: > 100 µM (inactive) | GI50 [4]: > 100 µM (inactive) | GI50 [5]: > 100 µM (inactive) | GI50 [8]: > 100 µM (inactive) | GI50 [10]: > 100 µM (inactive) | GI50 [11]: > 100 µM (inactive) | GI50 [12]: > 100 µM (inactive) | GI50 [13]: > 100 µM (inactive) | GI50 [14]: > 100 µM (inactive) | GI50 [15]: > 100 µM (inactive) | GI50 [16]: > 100 µM (inactive) | GI50 [17]: > 100 µM (inactive) | GI50 [18]: 69.5 µM (inactive)

O=c1sc2ccccc2n1CC1CS1 (stereo not drawn)
GI50 [20]: > 100 µM (inactive) | GI50 [2]: > 100 µM (inactive) | GI50 [3]: > 100 µM (inactive) | GI50 [4]: > 100 µM (inactive) | GI50 [5]: > 100 µM (inactive) | GI50 [6]: > 100 µM (inactive) | GI50 [7]: > 100 µM (inactive) | GI50 [9]: > 100 µM (inactive) | GI50 [10]: > 100 µM (inactive) | GI50 [11]: > 100 µM (inactive) | GI50 [12]: > 100 µM (inactive) | GI50 [13]: > 100 µM (inactive) | GI50 [14]: > 100 µM (inactive) | GI50 [15]: > 100 µM (inactive) | GI50 [18]: > 100 µM (inactive) | GI50 [19]: > 100 µM (inactive)

C=CCCCC12CCCc3cccc(c31)NC2=O (stereo not drawn)
GI50 [1]: 19.6 µM (inactive) | GI50 [20]: 28.1 µM (inactive) | GI50 [2]: 17.3 µM (inactive) | GI50 [3]: 15.5 µM (inactive) | GI50 [4]: 13.8 µM (inactive) | GI50 [6]: 21.2 µM (inactive) | GI50 [9]: 18.8 µM (inactive) | GI50 [10]: 15.6 µM (inactive) | GI50 [11]: 16.9 µM (inactive) | GI50 [15]: 19.7 µM (inactive) | GI50 [17]: 22 µM (inactive) | GI50 [18]: 30.4 µM (inactive) | GI50 [19]: 20.6 µM (inactive)

COc1ccc(-n2cnnc2-c2nsc3ccccc23)cc1
GI50 [20]: 90.6 µM (inactive) | GI50 [2]: > 100 µM (inactive) | GI50 [3]: 78 µM (inactive) | GI50 [4]: 45.1 µM (inactive) | GI50 [5]: 92.5 µM (inactive) | GI50 [6]: > 100 µM (inactive) | GI50 [7]: > 100 µM (inactive) | GI50 [9]: > 100 µM (inactive) | GI50 [12]: > 100 µM (inactive) | GI50 [13]: 75.3 µM (inactive) | GI50 [14]: 78.2 µM (inactive) | GI50 [16]: 22.2 µM (inactive) | GI50 [17]: > 100 µM (inactive) | GI50 [18]: > 100 µM (inactive)

COc1ccc(N2C(=O)C(=O)N(C)C2=O)c2ccccc12
GI50 [1]: > 10 µM (inactive) | GI50 [20]: > 10 µM (inactive) | GI50 [3]: > 10 µM (inactive) | GI50 [5]: > 10 µM (inactive) | GI50 [8]: > 10 µM (inactive) | GI50 [9]: > 10 µM (inactive) | GI50 [10]: > 10 µM (inactive) | GI50 [11]: > 10 µM (inactive) | GI50 [12]: > 10 µM (inactive) | GI50 [13]: > 10 µM (inactive) | GI50 [14]: > 10 µM (inactive) | GI50 [15]: > 10 µM (inactive) | GI50 [16]: > 10 µM (inactive) | GI50 [17]: > 10 µM (inactive) | GI50 [18]: > 10 µM (inactive)

CCN(CC)CCn1c(=O)c2c(C)c3oc4ccccc4oc3c(C)c2c1=O
GI50 [1]: > 100 µM (inactive) | GI50 [20]: > 100 µM (inactive) | GI50 [3]: > 100 µM (inactive) | GI50 [4]: > 100 µM (inactive) | GI50 [5]: > 100 µM (inactive) | GI50 [8]: > 100 µM (inactive) | GI50 [9]: > 100 µM (inactive) | GI50 [10]: > 100 µM (inactive) | GI50 [11]: > 100 µM (inactive) | GI50 [12]: > 100 µM (inactive) | GI50 [13]: > 100 µM (inactive) | GI50 [15]: > 100 µM (inactive) | GI50 [16]: > 100 µM (inactive) | GI50 [17]: > 100 µM (inactive)

COC1=CC(=O)c2c(c(O)c3oc4cc(OC)cc(C)c4c(=O)c3c2O)C1=O [BIKAVERIN]
GI50 [1]: 1.37 µM (inactive) | GI50 [2]: 0.462 µM (active) | GI50 [3]: 0.386 µM (active) | GI50 [4]: 0.578 µM (active) | GI50 [5]: 19.4 µM (inactive) | GI50 [6]: 5.94 µM (inactive) | GI50 [7]: 0.908 µM (active) | GI50 [8]: 1.69 µM (inactive) | GI50 [9]: 0.671 µM (active) | GI50 [10]: 1.17 µM (inactive) | GI50 [11]: 0.716 µM (active) | GI50 [12]: 0.178 µM (active) | GI50 [13]: 4.46 µM (inactive) | GI50 [14]: 2.03 µM (inactive) | GI50 [15]: 1.56 µM (inactive) | GI50 [16]: 1.21 µM (inactive) | GI50 [17]: 0.879 µM (active) | GI50 [18]: 1.36 µM (inactive) | GI50 [19]: 0.942 µM (active)

— ChEMBL document CHEMBL1201862, “PubChem BioAssay data set” (2004)
